The values below come from patent US12673936B2, “Isoindolinone compounds, and uses thereof” (HANGZHOU GLUBIO PHARMACEUTICAL CO., LTD., priority 2021, dated 2026).

For assay [1], the target named is HiBiT tagged GSPT1 (Homo sapiens, UniProt P15170+Q96SW2). Kind of assay: GSPT1 degradation assay (HiBiT assay). Type of assay: cell-based. The following applies: 20 hours, maximum GSPT1 degradation; for Dmax: HT-1080, HT-1080 cells; for HiBiT GSPT1: Dmax: HT-1080 cells. The procedure:
(§1) CK1α and GSPT1 Degradation Assay (HiBiT Assay) The following is an example of an assay that can be used to determine the dose-dependent CK1α and GSPT1 degradation activities of test compounds in a human cell line such as HT-1080 ([…]). HT-1080 cells stably overexpressing wild-type CRBN, GSPT1A(1-138)/G575N mutant and HiBiT tagged CK1α or GSPT1 were seeded into 384-well plates (Cat #3764, Corning) pre-spotted with DMSO or test compounds. Increasing concentrations of test compounds (ranging from 3.162×10^-4 μM to 10 μM at a 3.16-fold increment) or DMSO were dispensed into an empty 384-well plate using an Echo Acoustic Liquid Handler (Beckman Coulter). About 10,000 cells in complete DMEM cell culture media were seeded per well. […] Luminescence was then measured with an EnVision plate reader (PerkinElmer) or a PHERAstar plate reader (BMG Labtech). All CK1α or GSPT1 degradation curves were processed using Collaborative Drug Discovery Vault softwares (Burlingame, CA., www.collaborativedrug.com). CK1α or GSPT1 levels in compound-treated wells were normalized to that of DMSO control and expressed as Percent of Control (PoC, y). […]
(HiBiT is a short tag that completes a luciferase, so light tracks the accessible tagged protein.)

The target in assay [2] is HiBiT tagged CK1α (Homo sapiens, UniProt P48729+Q96SW2). Kind of assay: CK1α degradation assay (HiBiT assay). The following applies: 20 hours; for Dmax: HT-1080, HT-1080 cells; for Dmax / HiBiT CK1α: Dmax: maximum CK1α degradation; for DC50 / HiBiT CK1α: Dmax: HT-1080 cells; for DC50: concentration at 50% CK1α degradation. It is filed as cell-based. The procedure: as §1
Chain of HiBiT tagged CK1α (P48729 whole entry): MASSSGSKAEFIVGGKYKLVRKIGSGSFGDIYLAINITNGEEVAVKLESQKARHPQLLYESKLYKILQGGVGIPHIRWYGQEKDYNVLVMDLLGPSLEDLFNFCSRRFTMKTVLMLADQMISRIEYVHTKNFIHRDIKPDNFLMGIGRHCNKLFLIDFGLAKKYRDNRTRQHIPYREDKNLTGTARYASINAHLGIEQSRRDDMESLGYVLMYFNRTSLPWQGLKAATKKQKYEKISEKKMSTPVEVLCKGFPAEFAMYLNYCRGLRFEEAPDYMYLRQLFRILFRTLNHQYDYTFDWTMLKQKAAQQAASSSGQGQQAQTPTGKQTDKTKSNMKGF
Chain of HiBiT tagged CK1α (Q96SW2 whole entry): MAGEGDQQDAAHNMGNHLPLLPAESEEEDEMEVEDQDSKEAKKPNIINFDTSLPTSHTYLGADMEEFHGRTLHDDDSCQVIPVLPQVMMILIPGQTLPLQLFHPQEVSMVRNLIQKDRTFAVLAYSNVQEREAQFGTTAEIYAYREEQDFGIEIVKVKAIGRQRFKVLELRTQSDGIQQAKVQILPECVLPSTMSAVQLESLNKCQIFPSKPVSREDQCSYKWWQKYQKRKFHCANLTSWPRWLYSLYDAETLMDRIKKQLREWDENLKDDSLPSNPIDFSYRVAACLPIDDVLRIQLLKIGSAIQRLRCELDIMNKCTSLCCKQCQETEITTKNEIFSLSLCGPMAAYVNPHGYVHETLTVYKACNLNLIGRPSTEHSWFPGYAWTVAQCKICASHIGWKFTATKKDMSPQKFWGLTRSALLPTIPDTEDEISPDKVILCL
Chain of HiBiT tagged CK1α (Q16531 whole entry partner): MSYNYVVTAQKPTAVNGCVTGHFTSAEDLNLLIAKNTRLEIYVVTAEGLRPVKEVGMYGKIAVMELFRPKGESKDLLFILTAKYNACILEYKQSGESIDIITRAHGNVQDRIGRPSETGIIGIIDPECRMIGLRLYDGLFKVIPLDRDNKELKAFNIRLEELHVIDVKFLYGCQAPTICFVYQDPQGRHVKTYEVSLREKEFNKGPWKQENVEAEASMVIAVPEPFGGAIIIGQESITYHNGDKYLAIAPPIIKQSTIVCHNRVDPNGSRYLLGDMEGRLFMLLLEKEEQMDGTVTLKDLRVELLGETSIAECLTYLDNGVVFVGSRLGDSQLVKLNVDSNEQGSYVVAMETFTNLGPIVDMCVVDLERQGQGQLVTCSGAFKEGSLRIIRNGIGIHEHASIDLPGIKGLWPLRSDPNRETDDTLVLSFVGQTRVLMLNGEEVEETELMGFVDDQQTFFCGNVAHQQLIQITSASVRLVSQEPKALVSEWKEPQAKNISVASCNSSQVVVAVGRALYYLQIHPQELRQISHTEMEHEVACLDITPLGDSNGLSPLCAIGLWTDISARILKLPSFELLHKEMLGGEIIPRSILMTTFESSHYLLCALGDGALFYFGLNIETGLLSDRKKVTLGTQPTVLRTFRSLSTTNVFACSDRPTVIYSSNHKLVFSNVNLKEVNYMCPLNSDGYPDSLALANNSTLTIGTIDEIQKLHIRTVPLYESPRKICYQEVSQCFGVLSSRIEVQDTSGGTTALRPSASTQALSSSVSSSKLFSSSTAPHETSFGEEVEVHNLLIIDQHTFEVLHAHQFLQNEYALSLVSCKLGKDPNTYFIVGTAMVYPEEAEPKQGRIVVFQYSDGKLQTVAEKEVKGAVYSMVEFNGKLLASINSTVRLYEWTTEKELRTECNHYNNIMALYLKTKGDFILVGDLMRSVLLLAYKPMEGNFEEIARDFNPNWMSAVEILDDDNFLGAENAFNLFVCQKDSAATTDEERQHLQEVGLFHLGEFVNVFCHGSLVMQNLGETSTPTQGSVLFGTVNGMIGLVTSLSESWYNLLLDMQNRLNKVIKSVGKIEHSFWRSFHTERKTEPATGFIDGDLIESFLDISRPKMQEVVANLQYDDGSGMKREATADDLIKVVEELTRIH

Chain of HiBiT tagged GSPT1 (P15170 whole entry): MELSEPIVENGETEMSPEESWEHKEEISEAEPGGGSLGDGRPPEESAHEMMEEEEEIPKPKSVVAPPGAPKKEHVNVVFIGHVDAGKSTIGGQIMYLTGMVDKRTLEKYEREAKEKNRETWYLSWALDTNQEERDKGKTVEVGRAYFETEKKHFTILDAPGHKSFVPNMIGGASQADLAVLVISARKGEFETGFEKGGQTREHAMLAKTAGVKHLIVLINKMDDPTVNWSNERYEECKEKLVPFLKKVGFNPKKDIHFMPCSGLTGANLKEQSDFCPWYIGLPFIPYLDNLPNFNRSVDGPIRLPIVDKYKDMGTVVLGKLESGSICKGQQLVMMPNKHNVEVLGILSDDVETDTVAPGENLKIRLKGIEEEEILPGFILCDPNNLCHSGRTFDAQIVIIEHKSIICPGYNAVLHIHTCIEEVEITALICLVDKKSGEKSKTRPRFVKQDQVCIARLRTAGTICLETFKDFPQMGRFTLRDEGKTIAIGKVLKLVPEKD
Chain of HiBiT tagged GSPT1 (Q96SW2 whole entry): as the sequence (Q96SW2 whole entry) above
Chain of HiBiT tagged GSPT1 (Q16531 whole entry partner): as the sequence (Q16531 whole entry partner) above

As a reminder, the Dmax is the greatest extent of degradation seen. High values mean a fuller loss of target, low ones a partial loss of target. Usually DC50 stands for the midpoint of the concentration-degradation curve. `O=C1CC[C@H](N2Cc3cc(C(=O)N[C@H](c4ccc(F)c(F)c4)C4CCC4)ccc3C2=O)C(=O)N1` (racemic) [Compound 46, N-((*R)-cyclobutyl(3,4-difluorophenyl)methyl)-2-((*S)-2,6-dioxopiperidin-3-yl)-1-oxoisoindoline-5-carboxamide] returned a Dmax in assay [1] of 32.4%. In assay [2], this molecule gave a maximal degradation (Dmax) of 54.6% and a 50% degradation concentration (DC50) of 1.3 µM.

Consider `O=C1CC[C@H](N2Cc3cc(C(=O)N[C@H](c4ccc(F)c(F)c4)C4CCC4)ccc3C2=O)C(=O)N1` (racemic) [Compound 48, N-((*S)-cyclobutyl(3,4-difluorophenyl)methyl)-2-((S)-2,6-dioxopiperidin-3-yl)-1-oxoisoindoline-5-carboxamide], for which the “HiBiT GSPT1: Dmax” value in assay [1] was found to be 26.2%. In assay [2], half-maximal degradation (DC50) was put at 0.13 µM and the “HiBiT CK1α: Dmax” value came to 66.2%.

In assay [1], `O=C1CC[C@@H](N2Cc3cc(C(=O)N[C@H](c4ccc(F)cc4Cl)C4CCC4)ccc3C2=O)C(=O)N1` (racemic) [Compound 50, N-((*S)-(2-chloro-4-fluorophenyl)(cyclobutyl)methyl)-2-((*R)-2,6-dioxopiperidin-3-yl)-1-oxoisoindoline-5-carboxamide] had a Dmax of 42.7%. In assay [2], this molecule registered a Dmax of 63.1% and a 50% degradation concentration (DC50) of 0.237 µM.

`O=C1CC[C@H](N2Cc3cc(C(=O)N[C@H](c4ccc(F)cc4Cl)C4CCC4)ccc3C2=O)C(=O)N1` (racemic) [Compound 51, N-((*S)-(2-chloro-4-fluorophenyl)(cyclobutyl)methyl)-2-((*S)-2,6-dioxopiperidin-3-yl)-1-oxoisoindoline-5-carboxamide] displayed a Dmax in assay [1] of 46%. In assay [2], this molecule displayed a Dmax of 62.3% and a DC50 of 0.142 µM.

As for `O=C1CC[C@@H](N2Cc3cc(C(=O)N[C@H](c4ccc(F)cc4Cl)C4CCC4)ccc3C2=O)C(=O)N1` (racemic) [Compound 52, N-((*S)-(2-chloro-4-fluorophenyl)(cyclobutyl)methyl)-2-((*R)-2,6-dioxopiperidin-3-yl)-1-oxoisoindoline-5-carboxamide], the “HiBiT GSPT1: Dmax” value in assay [1] worked out at 28.5%. In assay [2], the half-maximal degradation concentration (DC50) turned out to be 0.095 µM and the “HiBiT CK1α: Dmax” value was determined as 73.9%.

For `O=C1CC[C@@H](N2Cc3cc(C(=O)N[C@H](c4ccc(Cl)cc4F)C4CCC4)ccc3C2=O)C(=O)N1` (racemic) [Compound 54, N-((*S)-(4-chloro-2-fluorophenyl)(cyclobutyl)methyl)-2-((*R)-2,6-dioxopiperidin-3-yl)-1-oxoisoindoline-5-carboxamide], the “HiBiT GSPT1: Dmax” value in assay [1] came to 47.9%. In assay [2], this molecule came in with a maximal degradation (Dmax) of 56.5% and a DC50 of 1.11 µM.

`O=C1CC[C@H](N2Cc3cc(C(=O)N[C@H](c4ccc(Cl)cc4F)C4CCC4)ccc3C2=O)C(=O)N1` (racemic) [Compound 55, N-((*S)-(4-chloro-2-fluorophenyl)(cyclobutyl)methyl)-2-((*S)-2,6-dioxopiperidin-3-yl)-1-oxoisoindoline-5-carboxamide]: the “HiBiT GSPT1: Dmax” value in assay [1] is given as 48%. In assay [2], this molecule yielded a maximal degradation (Dmax) of 57.8% and a DC50 of 0.948 µM.

Turning to `O=C1CC[C@@H](N2Cc3cc(C(=O)N[C@H](c4ccc(Cl)cc4F)C4CCC4)ccc3C2=O)C(=O)N1` (racemic) [Compound 56, N-((*S)-(4-chloro-2-fluorophenyl)(cyclobutyl)methyl)-2-((*R)-2,6-dioxopiperidin-3-yl)-1-oxoisoindoline-5-carboxamide], the “HiBiT GSPT1: Dmax” value in assay [1] turned out to be 15.3%. In addition, in assay [2], the half-maximal degradation concentration (DC50) stood at 0.0937 µM and the “HiBiT CK1α: Dmax” value is 63.6%.

In the case of `O=C1CC[C@H](N2Cc3cc(C(=O)N[C@H](c4ccc(Cl)cc4F)C4CCC4)ccc3C2=O)C(=O)N1` (racemic) [Compound 57, N-((*S)-(4-chloro-2-fluorophenyl)(cyclobutyl)methyl)-2-((*S)-2,6-dioxopiperidin-3-yl)-1-oxoisoindoline-5-carboxamide], in assay [1], the “HiBiT GSPT1: Dmax” value is 19.1%. Besides, in assay [2], the half-maximal degradation concentration (DC50) is 0.128 µM and the “HiBiT CK1α: Dmax” value worked out at 64.4%.

For `O=C1CC[C@H](N2Cc3cc(C(=O)N[C@H](c4ccc(F)cc4)C4CCCC4)ccc3C2=O)C(=O)N1` (racemic) [Compound 60, N-((*R)-cyclopentyl(4-fluorophenyl)methyl)-2-((S)-2,6-dioxopiperidin-3-yl)-1-oxoisoindoline-5-carboxamide], in assay [1], the greatest degradation seen (Dmax) amounted to 27.4%. In assay [2], the DC50 was less than 0.0471 µM and the “HiBiT CK1α: Dmax” value is 49%.

With `O=C1CCC(N2Cc3cc(C(=O)N[C@H](c4ccc(F)cc4)C4CCCC4)ccc3C2=O)C(=O)N1` (mixture of isomers) [Compound 61, N-((*S)-cyclopentyl(4-fluorophenyl)methyl)-2-((R)-2,6-dioxopiperidin-3-yl)-1-oxoisoindoline-5-carboxamide], the Dmax was found to be 29.3% in assay [1] and 49.5% in assay [2].

Take `O=C1CC[C@H](N2Cc3cc(C(=O)N[C@H](c4ccc(F)cc4)C4CCCC4)ccc3C2=O)C(=O)N1` (racemic) [Compound 63, N-((*S)-cyclopentyl(4-fluorophenyl)methyl)-2-((S)-2,6-dioxopiperidin-3-yl)-1-oxoisoindoline-5-carboxamide]: the “HiBiT GSPT1: Dmax” value in assay [1] is 29%. Besides, in assay [2], the DC50 came to 0.0535 µM and the “HiBiT CK1α: Dmax” value was determined as 72.2%.

In turn, `O=C1CCC(N2Cc3cc(C(=O)NC(c4ccc(F)c(F)c4)C4CCC4)ccc3C2=O)C(=O)N1` (single isomer, unassigned) [Compound 47, N-((*R)-cyclobutyl(3,4-difluorophenyl)methyl)-2-((*R)-2,6-dioxopiperidin-3-yl)-1-oxoisoindoline-5-carboxamide] showed a Dmax in assay [1] of 29.7%. Besides, in assay [2], the Dmax was 56.1% and the DC50 was 2.96 µM.

`O=C1CC[C@@H](N2Cc3cc(C(=O)NC(c4ccc(F)c(F)c4)C4CCC4)ccc3C2=O)C(=O)N1` (single isomer, unassigned) [Compound 49, N-((*S)-cyclobutyl(3,4-difluorophenyl)methyl)-2-((R)-2,6-dioxopiperidin-3-yl)-1-oxoisoindoline-5-carboxamide]: in assay [1], the maximal degradation (Dmax) was 28.6%. In assay [2], this molecule registered a maximal degradation (Dmax) of 68.6% and a DC50 of 0.112 µM.

In assay [1], `O=C1CCC(N2Cc3cc(C(=O)NC(c4ccc(F)cc4Cl)C4CCC4)ccc3C2=O)C(=O)N1` (single isomer, unassigned) [Compound 53, N-((*S)-(2-chloro-4-fluorophenyl)(cyclobutyl)methyl)-2-((*S)-2,6-dioxopiperidin-3-yl)-1-oxoisoindoline-5-carboxamide] came in with a Dmax of 24.2%. In assay [2], the greatest degradation seen (Dmax) stood at 70.2% and half-maximal degradation (DC50) was put at 0.118 µM.

For `O=C1CC[C@@H](N2Cc3cc(C(=O)NC(c4ccc(F)cc4)C4CCCC4)ccc3C2=O)C(=O)N1` (single isomer, unassigned) [Compound 62, N-((*S)-cyclopentyl(4-fluorophenyl)methyl)-2-((R)-2,6-dioxopiperidin-3-yl)-1-oxoisoindoline-5-carboamide], the maximal degradation (Dmax) in assay [1] stood at 27.5%. Also, in assay [2], the greatest degradation seen (Dmax) was 69.8% and half-maximal degradation (DC50) was put at 0.0777 µM.

For `O=C1CCC(N2Cc3cc(C(=O)N[C@@H](c4ccc(Cl)cc4)C4CC4)ccc3C2=O)C(=O)N1` (stereo in doubt) [Compound 2, N—((*R)-(4-chlorophenyl)(cyclopropyl)methyl)-2-(2,6-dioxopiperidin-3-yl)-1-oxoisoindoline-5-carboxamide], in assay [1], the “HiBiT GSPT1: Dmax” value turned out to be 33.6%. Also, in assay [2], half-maximal degradation (DC50) was put at 0.18 µM and the “HiBiT CK1α: Dmax” value came out at 67%.
